The source of these data is US7642378B2, “Lipid lowering biphenylcarboxamides” (Janssen Pharmaceutica NV, priority 2001, dated 2010).

One may read the melting point as the temperature, or range, at which the solid turns liquid.

The subject of one data set is Secretion of ApoB. The data set is described as follows: Quantification of the secretion of ApoB. The data set is classed as cell-based. The conditions noted are these: HepG2 cells, 24 hours of incubation with test compound. Here is the method:
HepG2 cells were cultured in 24-well plates in MEM Rega 3 containing 10% fetal calf serum. At 70% confluency, the medium was changed and the test compound or carrier (DMSO, 0.4% final concentration) was added. After 24 hours of incubation, the medium was transferred to Eppendorf tubes and cleared by centrifugation. A sheep antibody directed against either apoB was added to the supernatant and the mixture was kept at 8° C. for 24 hours. Then, rabbit anti-sheep antibody was added and the immune complex was allowed to precipitate for 24 hours at 8° C. The immunoprecipitate was pelleted by centrifugation for 25 minutes at 1320 g and washed twice with a buffer containing 40 mM Mops, 40 mM NaH2PO4, 100 mM NaF, 0.2 mM DTT, 5 mM EDTA, 5 mM EGTA, 1% Triton-X-100, 0.5% sodium deoxycholate (DOC), 0.1% SDS, 0.2 μM leupeptin and 0.2 μM PMSF. Radioactivity in the pellet was quantified by liquid scintillation counting.
Resulting IC50 values are enumerated in Table C. 1.

Regarding `COC(=O)COC(=O)C(c1ccccc1)N1CCN(c2ccc(NC(=O)c3ccccc3-c3ccc(C(F)(F)F)cc3)cc2)CC1` (stereo not drawn) [Co. No. 14, 2-methoxy-2-oxoethyl α-phenyl-4-[4-[[[4′-(trifluoromethyl)[1,1′-biphenyl]-2-yl]carbonyl]amino]phenyl]-1-piperazineacetate], the melting point stood at 106 °C.
In the case of `COC(=O)CNC(=O)C(c1ccccc1)C1CCN(c2ccc(NC(=O)c3ccccc3-c3ccc(C(C)(C)C)cc3)cc2)CC1` (stereo not drawn) [Co. No. 145, (B)—N-[[1-[4-[[[4′-(1,1-dimethylethyl)[1,1′-biphenyl]-2-yl]carbonyl]amino]phenyl]-4-piperidinyl]phenylacetyl]-glycine methyl ester], the melting point fell in the range of 119.9 to 120 °C.
Consider `COC(=O)COC(=O)C(c1ccccc1)N1CCN(c2ccc(NC(=O)c3ccccc3-c3ccc(C(F)(F)F)cc3)cc2)CC1` (stereo not drawn) [compound 14], for which the “pIC50 values (=−log IC50 value)” value in the data set with Secretion of ApoB amounted to 6.591.
